In patent US8258114B2, “Modulation of glucose-6-phosphatase translocase expression” (Isis Pharmaceuticals, Inc., priority 2004, dated 2012):
Like-named read-outs stand apart in the source and are kept apart here.

Experiments:
[1] = rat, in vivo
Protocol: For three weeks, male Sprague-Dawley rats were injected twice-weekly with doses of 12.5 mg/kg, 25 mg/kg, or 50 mg/kg of ISIS 145760, ISIS 359543, or ISIS 366228. Each treatment group was comprised of 4 animals. Animals which received twice weekly injections of saline served as controls.
Body weight was monitored throughout the study period. […] Tissue weights were also measured at the end of the study.

[2] = Plasma glucose, cholesterol and triglycerides in normal Sprague-Dawley rats (Table 14); format: in vivo, rat; set-up: plasma GLUCOSE WK 0 / plasma GLUCOSE WK 3: unit not given beside the values
Protocol: Each treatment group was comprised of 4 animals.
To further assess the physiological effects resulting from inhibition of target mRNA, the rats were evaluated at the beginning (Wk 0) and at the end (Wk 3) of the treatment period for plasma glucose, plasma cholesterol, and plasma triglyceride levels. Triglycerides and cholesterol were measured by routine clinical analyzer instruments (e.g. Olympus Clinical Analyzer, Melville, N.Y.). Glucose levels were measured using a glucose analyzer, for example a YSI glucose analyzer (YSI Scientific, Yellow Springs, Ohio). Results are presented in Table 14 as the average level of plasma glucose, plasma cholesterol (CHOL), or plasma triglycerides (TRIG) measured per treatment group.

Sequence: GTGCTTGGCGATGGTACTGA (chemistry not given here) [ISIS 366228]
- Fat weight ([1]; 12.5 mg/kg): 1.6 grams
- Fat weight ([1]; 25 mg/kg): 1.5 grams
- Fat weight ([1]; 50 mg/kg): 1.1 grams
- Kidney weight ([1]; 50 mg/kg): 3 grams
- Liver weight ([1]; 50 mg/kg): 15 grams
- Spleen weight ([1]; 50 mg/kg): 1.1 grams
- plasma cholesterol (CHOL) WK 3 ([2]; 12.5 mg/kg twice weekly, saline 58): 49
- plasma triglycerides (TRIG) WK 0 ([2]; 12.5 mg/kg twice weekly, saline 69): 54
- plasma cholesterol (CHOL) WK 0 ([2]; 12.5 mg/kg twice weekly, saline 74): 70
- plasma GLUCOSE WK 0 ([2]; 12.5 mg/kg twice weekly, saline 135): 147
- plasma GLUCOSE WK 3 ([2]; 12.5 mg/kg twice weekly, saline 139): 146
- plasma triglycerides (TRIG) WK 3 ([2]; 12.5 mg/kg twice weekly, saline 140): 84
- plasma GLUCOSE WK 0 ([2]; 25 mg/kg twice weekly): 148
- plasma GLUCOSE WK 3 ([2]; 25 mg/kg twice weekly): 149
- plasma cholesterol (CHOL) WK 0 ([2]; 25 mg/kg twice weekly): 93
- plasma cholesterol (CHOL) WK 3 ([2]; 25 mg/kg twice weekly): 70
- plasma triglycerides (TRIG) WK 0 ([2]; 25 mg/kg twice weekly): 56
- plasma triglycerides (TRIG) WK 3 ([2]; 25 mg/kg twice weekly): 76
- plasma GLUCOSE WK 0 ([2]; 50 mg/kg twice weekly): 137
- plasma GLUCOSE WK 3 ([2]; 50 mg/kg twice weekly): 139
- plasma cholesterol (CHOL) WK 0 ([2]; 50 mg/kg twice weekly): 76
- plasma cholesterol (CHOL) WK 3 ([2]; 50 mg/kg twice weekly): 54
- plasma triglycerides (TRIG) WK 0 ([2]; 50 mg/kg twice weekly): 65
- plasma triglycerides (TRIG) WK 3 ([2]; 50 mg/kg twice weekly): 64
- plasma triglycerides (in words) ([2]; 12.5 to 50 mg/kg, three weeks): prevented the increases in triglycerides observed in saline-treated animals
